Reference: patent US11427549B2, “Pyrimidinyloxy benzo-fused compounds as herbicides” (FMC Corporation, priority 2017, dated 2022)

Assays:
[1] = system: pigweed (Amaranthus retroflexus); assay: Test A postemergence, pigweed; format: in vivo; conditions: Amaranthus retroflexus, post-emergence, 240 h, 0 to 100 scale (0 no effect, 100 complete control), read-out: Plant response rating, Pigweed; for pest or weed control at 31 g/ha: 31 g ai/ha; for pest or weed control at 125 g/ha: 125 g ai/ha
[2] = system: wheat (Triticum aestivum); assay: Test A postemergence, wheat; format: in vivo; conditions: Triticum aestivum, post-emergence, 240 h, 0 to 100 scale (0 no effect, 100 complete control), read-out: Plant response rating, Wheat; for plant injury at 31 g/ha: 31 g ai/ha; for plant injury at 125 g/ha: 125 g ai/ha
[3] = system: barnyardgrass (Echinochloa crus-galli); assay: Test A preemergence, barnyardgrass; format: in vivo; conditions: Echinochloa crus-galli, pre-emergence, 240 h, 0 to 100 scale (0 no effect, 100 complete control), read-out: Plant response rating, Barnyardgrass; for pest or weed control at 31 g/ha: 31 g ai/ha; for pest or weed control at 125 g/ha: 125 g ai/ha
[4] = system: ryegrass, Italian (Italian ryegrass, Lolium multiflorum); assay: Test A preemergence, ryegrass, Italian; format: in vivo; conditions: Lolium multiflorum, pre-emergence, 240 h, 0 to 100 scale (0 no effect, 100 complete control), read-out: Plant response rating, Ryegrass, Italian; for pest or weed control at 31 g/ha: 31 g ai/ha; for pest or weed control at 125 g/ha: 125 g ai/ha
kochia (Kochia scoparia) [5] = assay: Test A postemergence, kochia; format: in vivo; conditions: Bassia scoparia, post-emergence, 240 h, 0 to 100 scale (0 no effect, 100 complete control), read-out: Plant response rating, Kochia; for pest or weed control at 31 g/ha: 31 g ai/ha; for pest or weed control at 125 g/ha: 125 g ai/ha
[6] = system: galium (catchweed bedstraw, Galium aparine); assay: Test A postemergence, galium; format: in vivo; conditions: Galium, post-emergence, 240 h, 0 to 100 scale (0 no effect, 100 complete control), read-out: Plant response rating, Galium; for pest or weed control at 31 g/ha: 31 g ai/ha; for pest or weed control at 125 g/ha: 125 g ai/ha
[7] = system: foxtail, giant (giant foxtail, Setaria faberii); assay: Test A preemergence, foxtail, giant; format: in vivo; conditions: Setaria faberi, pre-emergence, 240 h, 0 to 100 scale (0 no effect, 100 complete control), read-out: Plant response rating, Foxtail, Giant; for pest or weed control at 31 g/ha: 31 g ai/ha; for pest or weed control at 125 g/ha: 125 g ai/ha
Excerpt: Seeds of plant species selected from barnyardgrass (Echinochloa crus-galli), kochia (Kochia scoparia), ragweed (common ragweed, Ambrosia elatior), ryegrass, Italian (Italian ryegrass, Lolium multiflorum), foxtail, giant (giant foxtail, Setaria faberii), foxtail, green (green foxtail, Setaria viridis) and pigweed (Amaranthus retroflexus) were planted into a blend of loam soil and sand and treated preemergence with a directed soil spray using test chemicals formulated in a non-phytotoxic solvent mixture which included a surfactant.
At the same time, plants selected from these weed species and also wheat (Triticum aestivum), corn (Zea mays), blackgrass (Alopecurus myosuroides), and galium (catchweed bedstraw, Galium aparine) were planted in pots containing the same blend of loam soil and sand and treated with postemergence applications of test chemicals formulated in the same manner. Plants ranged in height from 2 to 10 cm and were in the one- to two-leaf stage for the postemergence treatment. Treated plants and untreated controls were maintained in a greenhouse for approximately 10 days, after which time all treated plants were compared to untreated controls and visually evaluated for injury. […] A dash (-) response means no test result.

[8] = system: blackgrass (Alopecurus myosuroides); assay: Test A postemergence, blackgrass; format: in vivo; conditions: Alopecurus myosuroides, post-emergence, 240 h, 0 to 100 scale (0 no effect, 100 complete control), read-out: Plant response rating, Blackgrass; for pest or weed control at 31 g/ha: 31 g ai/ha; for pest or weed control at 125 g/ha: 125 g ai/ha
rice (Oryza sativa) = assay: Test B flooded paddy test, rice; conditions: Oryza sativa, read-out: Plant response rating, Rice (0 to 100 scale, 0 is no effect, 100 is complete control)
[9] = system: barnyardgrass (Echinochloa crus-galli); assay: Test A postemergence, barnyardgrass; format: in vivo; conditions: Echinochloa crus-galli, post-emergence, 240 h, 0 to 100 scale (0 no effect, 100 complete control), read-out: Plant response rating, Barnyardgrass; for pest or weed control at 31 g/ha: 31 g ai/ha; for pest or weed control at 125 g/ha: 125 g ai/ha
[10] = system: ragweed (common ragweed, Ambrosia elatior); assay: Test A postemergence, ragweed; format: in vivo; conditions: Ambrosia artemisiifolia, post-emergence, 240 h, 0 to 100 scale (0 no effect, 100 complete control), read-out: Plant response rating, Ragweed; for pest or weed control at 31 g/ha: 31 g ai/ha; for pest or weed control at 125 g/ha: 125 g ai/ha
corn (Zea mays) = assay: Test A postemergence, corn; format: in vivo; conditions: Zea mays, post-emergence, 240 h, 0 to 100 scale (0 no effect, 100 complete control); for Corn plant response rating (crop injury, 0 = no effect, 100 = complete kill) at 31 g/ha: 31 g ai/ha; for Corn plant response rating (crop injury, 0 = no effect, 100 = complete kill) at 125 g/ha: 125 g ai/ha
[11] = system: pigweed (Amaranthus retroflexus); assay: Test A preemergence, pigweed; format: in vivo; conditions: Amaranthus retroflexus, pre-emergence, 240 h, 0 to 100 scale (0 no effect, 100 complete control), read-out: Plant response rating, Pigweed; for pest or weed control at 31 g/ha: 31 g ai/ha; for pest or weed control at 125 g/ha: 125 g ai/ha
[12] = system: ryegrass, Italian (Italian ryegrass, Lolium multiflorum); assay: Test A postemergence, ryegrass, Italian; format: in vivo; conditions: Lolium multiflorum, post-emergence, 240 h, 0 to 100 scale (0 no effect, 100 complete control), read-out: Plant response rating, Ryegrass, Italian; for pest or weed control at 31 g/ha: 31 g ai/ha; for pest or weed control at 125 g/ha: 125 g ai/ha
[13] = system: barnyardgrass (Echinochloa crus-galli); assay: Test B flooded paddy test, barnyardgrass; conditions: Echinochloa crus-galli, read-out: Plant response rating, Barnyardgrass (0 to 100 scale, 0 is no effect, 100 is complete control)
[14] = system: ducksalad (Heteranthera limosa); assay: Test B flooded paddy test, ducksalad; conditions: Heteranthera limosa, read-out: Plant response rating, Ducksalad (0 to 100 scale, 0 is no effect, 100 is complete control)
kochia (Kochia scoparia) [15] = assay: Test A preemergence, kochia; format: in vivo; conditions: Bassia scoparia, pre-emergence, 240 h, 0 to 100 scale (0 no effect, 100 complete control), read-out: Plant response rating, Kochia; for pest or weed control at 31 g/ha: 31 g ai/ha; for pest or weed control at 125 g/ha: 125 g ai/ha
[16] = system: ragweed (common ragweed, Ambrosia elatior); assay: Test A preemergence, ragweed; format: in vivo; conditions: Ambrosia artemisiifolia, pre-emergence, 240 h, 0 to 100 scale (0 no effect, 100 complete control), read-out: Plant response rating, Ragweed

Row | Structure (SMILES) | pest or weed control at 31 g/ha [1] [%] | pest or weed control at 125 g/ha [1] [%] | plant injury at 31 g/ha [2] [%] | plant injury at 125 g/ha [2] [%] | pest or weed control at 31 g/ha [3] [%] | pest or weed control at 125 g/ha [3] [%] | pest or weed control at 31 g/ha [4] [%] | pest or weed control at 125 g/ha [4] [%] | pest or weed control at 31 g/ha (kochia (Kochia scoparia) [5]) [%] | pest or weed control at 125 g/ha (kochia (Kochia scoparia) [5]) [%] | pest or weed control at 31 g/ha [6] [%] | pest or weed control at 125 g/ha [6] [%] | pest or weed control at 31 g/ha [8] [%] | pest or weed control at 125 g/ha [8] [%] | plant injury at 250 g/ha (rice (Oryza sativa)) [%] | pest or weed control at 31 g/ha [9] [%] | pest or weed control at 125 g/ha [9] [%] | pest or weed control at 31 g/ha [10] [%] | pest or weed control at 125 g/ha [10] [%] | Corn plant response rating (crop injury, 0 = no effect, 100 = complete kill) at 31 g/ha (corn (Zea mays)) [%] | other results
1 | FC(F)(F)CCCC1COc2cccc(Oc3ncc(Cl)cn3)c21 (stereo not drawn) [Compound 33, 5-Chloro-2-[[2,3-dihydro-3-(4,4,4-trifluorobutyl)-4-benzofuranyl]oxy]pyrimidine] | 20 | 30 | 0 | 0 | 0 | 50 | 0 | 50 | 30 | 40 | 50 | 70 | 0 | 20 | 0 | 10 | 20 | 0 | 10 | 0 | pest or weed control at 31 g/ha [7]: 10%; pest or weed control at 125 g/ha [7]: 100%; Corn plant response rating (crop injury, 0 = no effect, 100 = complete kill) at 125 g/ha (corn (Zea mays)): 0%; pest or weed control at 31 g/ha [11]: 0%; pest or weed control at 125 g/ha [11]: 10%; pest or weed control at 31 g/ha [12]: 0%; pest or weed control at 125 g/ha [12]: 0%; pest or weed control at 250 g/ha [13]: 0%; pest or weed control at 250 g/ha [14]: 70%; pest or weed control at 31 g/ha (kochia (Kochia scoparia) [15]): 0%; pest or weed control at 125 g/ha (kochia (Kochia scoparia) [15]): 0%
2 | CCCC1OC(=O)Cc2cccc(Oc3ncc(Cl)cn3)c21 (stereo not drawn) [Compound 35, 8-[(5-Chloro-2-pyrimidinyl)oxy]-1,4-dihydro-1-propyl-3H-2-benzopyran-3-one] | 30 | 50 | 0 | 0 | 0 | 10 | 0 | 0 | 20 | 50 | 10 | 30 | 10 | 10 | 0 | 0 | 0 | 0 | 10 | 0 | pest or weed control at 31 g/ha ([16]; 31 g ai/ha): 0%; pest or weed control at 125 g/ha ([16]; 125 g ai/ha): 0%; Corn plant response rating (crop injury, 0 = no effect, 100 = complete kill) at 125 g/ha (corn (Zea mays)): 0%; pest or weed control at 31 g/ha [11]: 0%; pest or weed control at 125 g/ha [11]: 10%; pest or weed control at 31 g/ha [12]: 0%; pest or weed control at 125 g/ha [12]: 0%; pest or weed control at 250 g/ha [13]: 0%; pest or weed control at 250 g/ha [14]: 0%; pest or weed control at 31 g/ha (kochia (Kochia scoparia) [15]): 0%; pest or weed control at 125 g/ha (kochia (Kochia scoparia) [15]): 0%
3 | FC(F)(F)CCC1COc2cccc(Oc3ncc(Cl)cn3)c21 (stereo not drawn) [Compound 36, 5-Chloro-2-[[2,3-dihydro-3-(3,3,3-trifluoropropyl)-4-benzofuranyl]oxy]pyrimidine] | 10 | 10 | 0 | 0 | 0 | 0 | 0 | 0 | 30 | 50 | 10 | 10 | 0 | 0 | 0 | 0 | 10 | 0 | 0 | 0 | pest or weed control at 31 g/ha [7]: 0%; pest or weed control at 125 g/ha [7]: 60%; Corn plant response rating (crop injury, 0 = no effect, 100 = complete kill) at 125 g/ha (corn (Zea mays)): 0%; pest or weed control at 31 g/ha [11]: 0%; pest or weed control at 125 g/ha [11]: 0%; pest or weed control at 31 g/ha [12]: 0%; pest or weed control at 125 g/ha [12]: 0%; pest or weed control at 250 g/ha [13]: 0%; pest or weed control at 250 g/ha [14]: 50%; pest or weed control at 31 g/ha (kochia (Kochia scoparia) [15]): 0%; pest or weed control at 125 g/ha (kochia (Kochia scoparia) [15]): 0%
